These results are taken from patent publication US20070149456A1, “Epithelial sodium channel inhibiting agents and uses therefor” (University of Pittsburgh, priority 2005, published 2007).

Experiment [1] addresses T1, endogenous ENaC in mpkCCDc14 cells (Mus musculus, UniProt Q61180+Q9WU38+Q9WU39).
T1 construct: endogenous ENaC in a mouse cortical collecting duct (mpkCCDc14) cell line; endogenous in cells; host or cells: mpkCCDc14 mouse cortical collecting duct cell line
To be noted: mouse CCD cells; stated jointly with human airway; Carattino 2006; read-out: IC50, inhibition of ENaC activity; cited from earlier work.

For the next experiment, the system named is αR205A,Δ206-231βγ. Description: Two-electrode voltage clamp in oocytes expressing channels lacking furin cleavage and the tract αAsp-206-Arg-231. In kind it is cell-based, mouse. To be noted: 1 μM α-26. An excerpt: Oocyte Expression—cRNAs for α, β, γ mouse ENaC (wild-type and mutant) subunits and mouse prostasin were synthesized with T3 or T7 m-Message mMachineTM (Ambion, Austin, Tex.). Subunits carrying furin cleavage consensus site mutations and the corresponding wild-type subunits have amino-terminal HA and carboxyl-terminal V5 tags (Hughey, R. P., Bruns, J. B., Kinlough, C. L., Harkleroad, K. L., Tong, Q., Carattino, M. D., Johnson, J. P., Stockand, J. D., and Kleyman, T. R. (2004) J. Biol. Chem. 279, 18111-18114 18). Stage V-VI Xenopus laevis oocytes were pretreated with 1.5 mg/ml of type IV collagenase and injected with 0.5-2 ng of cRNA/subunit. Injected oocytes were maintained as previously reported (Carattino, M. D., Hill, W. G., and Kleyman, T. R. (2003), Arachidonic Acid Regulates Surface Expression of Epithelial Sodium Channels, J Biol. Chem. 278, 36202-36213 29).
Two-electrode Voltage Clamp—Two-electrode voltage clamp (TEV) was performed as previously described (Carattino, M. D., Hill, W. G., and Kleyman, T. R. (2003) J Biol. Chem. 278, 36202-36213 29). The extracellular solution (TEV solution) was (in mM): 110 NaCl, 2 KCl, 1.54 CaCl2, 10 HEPES, pH 7.4, or otherwise as indicated. […] ENaC-mediated whole cell Na^+ currents, at −60 mV,were defined as the amiloride-sensitive component of the current. […]

“Also recorded” adds a separate entry of the source.

T1 sequence (Q61180 1-205): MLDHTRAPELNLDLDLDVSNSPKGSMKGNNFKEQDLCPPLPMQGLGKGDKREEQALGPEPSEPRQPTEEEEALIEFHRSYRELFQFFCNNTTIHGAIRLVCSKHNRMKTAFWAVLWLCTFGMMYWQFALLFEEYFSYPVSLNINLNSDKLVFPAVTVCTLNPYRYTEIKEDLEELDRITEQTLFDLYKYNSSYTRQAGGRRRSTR
T1 sequence (Q61180 232-699): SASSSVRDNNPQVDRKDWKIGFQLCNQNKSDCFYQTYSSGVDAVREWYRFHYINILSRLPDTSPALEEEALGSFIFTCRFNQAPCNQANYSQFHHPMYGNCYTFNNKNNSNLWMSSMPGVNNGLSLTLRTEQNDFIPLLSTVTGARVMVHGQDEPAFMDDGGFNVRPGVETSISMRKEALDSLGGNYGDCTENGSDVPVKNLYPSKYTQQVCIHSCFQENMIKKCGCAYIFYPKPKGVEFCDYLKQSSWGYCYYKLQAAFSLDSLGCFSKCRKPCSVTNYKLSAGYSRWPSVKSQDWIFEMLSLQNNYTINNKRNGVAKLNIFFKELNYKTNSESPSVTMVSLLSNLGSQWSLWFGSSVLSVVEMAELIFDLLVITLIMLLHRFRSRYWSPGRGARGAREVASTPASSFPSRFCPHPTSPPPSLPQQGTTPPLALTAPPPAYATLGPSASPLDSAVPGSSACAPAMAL
T1 sequence (Q9WU38 whole entry): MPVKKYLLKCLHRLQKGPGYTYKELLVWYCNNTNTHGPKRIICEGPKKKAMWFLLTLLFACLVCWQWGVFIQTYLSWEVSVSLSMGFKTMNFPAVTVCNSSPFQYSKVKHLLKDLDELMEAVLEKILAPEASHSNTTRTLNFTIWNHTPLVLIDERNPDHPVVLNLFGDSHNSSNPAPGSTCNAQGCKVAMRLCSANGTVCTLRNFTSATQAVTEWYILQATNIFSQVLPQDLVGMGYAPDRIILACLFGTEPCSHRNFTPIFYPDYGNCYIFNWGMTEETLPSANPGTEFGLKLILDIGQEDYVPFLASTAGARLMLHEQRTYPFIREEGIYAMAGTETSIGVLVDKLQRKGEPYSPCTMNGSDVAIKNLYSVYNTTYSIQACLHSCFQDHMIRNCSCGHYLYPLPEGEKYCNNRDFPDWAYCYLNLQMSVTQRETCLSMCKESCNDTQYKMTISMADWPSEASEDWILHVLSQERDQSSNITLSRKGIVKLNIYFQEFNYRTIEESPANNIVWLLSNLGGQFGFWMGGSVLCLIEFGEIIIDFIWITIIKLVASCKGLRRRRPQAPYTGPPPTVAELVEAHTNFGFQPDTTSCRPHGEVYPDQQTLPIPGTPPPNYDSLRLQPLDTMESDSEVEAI
T1 sequence (Q9WU39 1-143): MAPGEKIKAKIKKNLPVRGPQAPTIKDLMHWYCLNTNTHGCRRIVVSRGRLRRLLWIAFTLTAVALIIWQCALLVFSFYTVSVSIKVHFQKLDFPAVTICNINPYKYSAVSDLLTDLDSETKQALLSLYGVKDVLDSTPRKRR
T1 sequence (Q9WU39 187-655): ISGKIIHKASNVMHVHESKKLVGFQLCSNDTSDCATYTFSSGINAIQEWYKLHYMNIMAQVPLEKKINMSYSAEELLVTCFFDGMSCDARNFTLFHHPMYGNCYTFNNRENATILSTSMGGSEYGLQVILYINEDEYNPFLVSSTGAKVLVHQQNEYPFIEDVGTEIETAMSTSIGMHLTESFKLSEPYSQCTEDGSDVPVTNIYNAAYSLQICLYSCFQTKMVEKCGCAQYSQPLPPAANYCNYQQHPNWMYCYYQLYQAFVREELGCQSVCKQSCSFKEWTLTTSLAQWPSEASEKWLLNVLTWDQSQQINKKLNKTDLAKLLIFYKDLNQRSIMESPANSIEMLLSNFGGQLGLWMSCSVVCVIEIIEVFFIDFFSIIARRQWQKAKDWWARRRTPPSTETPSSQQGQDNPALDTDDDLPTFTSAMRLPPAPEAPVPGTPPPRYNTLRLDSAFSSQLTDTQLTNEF

As to “Ac-DLRGALPHPLQRLRTPPPPNPARSAR-NH2 [α-26]”, the IC50 in experiment [1] was 50 to 100 µM. Moreover, the “block of channels” value in the experiment with αR205A,Δ206-231βγ was “does not block; also recorded: not blocked”.
